The record followed here is US5691334A, “Pyrrolydenemethyl-derivatives and process for their preparation” (Pharmacia & Upjohn S.p.A., priority 1993, dated 1997).

Where a name gives a salt, the structure may show the parent alone. Read-outs that look alike come from different tables or passages of the source.

The test system of one assay is murine splenocytes. As to the kind of experiment: Lymphocyte proliferation (tests 1 and 2: murine splenocytes induced by ConA / by irradiated allogenic spleen cells, MLR). Type of assay: cell-based. Particulars: for IC50: Mus musculus, Splenocyte, read-out: IC50 lymphocyte proliferation (upper and lower limits); for TI (therapeutic index): ratio of mean IC50 on tumor cells growth (test 3) to IC50 on lymphocytes proliferation (tests 1 and 2).

Assay [1] has as its system tumor cell lines (human erythroleukemia K562, murine melanoma B16). The assay is described as follows: Tumor cell growth (test 3: proliferation of human erythroleukemia K562, murine melanoma B16; MTT). Particulars: read-out: IC50 tumor cell growth (upper and lower limits). Type of assay: cell-based.
Procedure: Proliferation of tumor cell lines (human erythroleukemia K562, murine melanoma B16).
Test 3 allows to investigate the inhibitory effect of the present compounds on a generic proliferation pathway, independent from immune-specific growth factors.
Tumor cells were collected in the logarithmic phase of growth and seeded in triplicate in flat bottomed microculture plates at the concentration of 1×10^4 in the presence or absence of different concentrations of the test compound. After 48 h incubation at 37° C. in 5% CO2, the cell viability was evaluated by the MTT colorimetric method according to Ferrari et al., J. Immunol.
The concentration inhibiting 50% (IC50) of the cell proliferation in the different settings is calculated for the test compounds and the reference standard UP.
Where [2] appears, read: tests 1 and 2, [3H]thymidine uptake, ConA 72 h, MLR 96 h, limits in parentheses.
Setting [3] is: test 3, mean IC50 on tumor cells (K562, B16), 48 h, MTT, limits in parentheses.

Procedure for murine splenocytes: Proliferation of murine splenocytes induced by the mitogen Concanavaline A.
Proliferation of murine splenocytes induced by irradiated allogenic murine spleen cells (MLR).
Tests 1 and 2 allow the study of the compounds on proliferation models mediated by T-cell growth factors (e.g. IL-2) and are considered immunologically specific.
Spleens were aseptically removed from C57B1/6 mice and a cell suspension prepared in complete medium. Cell viability was evaluated by trypan blue exclusion.
Spleen cells (4×10^5) were cultured in triplicate in a volume of 0.15 ml, in flat bottomed microculture plates, in the absence or presence of an optimal concentration of ConA (1.7 microgr/ml) and of different concentrations of the test compound. Cultures were incubated for 72 h at 37° C. in a humidified, 5% CO2 incubator; 18 h before termination of the cultures, 0.2 microCi of [methyl-^3 H]thymidine were added to each well. Cells were harvested on glass fiber filters and the [^3 H]TdR uptake (cpm) quantified in a liquid scintillation counter.
Spleens were aseptically removed from C57B1/6 mice (responders) and Balb/c mice (stimulators), and cell suspensions prepared in complete medium. Responder cells (1×10^6) were cocultured in triplicate with irradiated (1500R) stimulator cells (5×10^5) in a volume of 0.15 ml in the presence or absence of different concentrations of the test compound, in flat bottomed microculture plates. Cultures were incubated for 96 h at 37° C. in a humidified, 5% CO2 incubator; the last 18 h in the presence of 0.2 microCi of ^3 H-TdR.
Cells were harvested on glass fiber filter and the ^3 H-TdR uptake (cpm) quantified in a liquid scintillation counter.
The concentration inhibiting 50% (IC50) of the cell proliferation in the different settings is calculated for the test compounds and the reference standard UP. The ratio between the mean IC50 values on tumor cells growth (test 3) and the IC50 on lymphocytes proliferation (measured by test 1 and 2) produces the therapeutic index (TI) of the compounds.

On to `CCCCCCCCCCCC1=NC(=Cc2[nH]c(-c3ccc[nH]3)cc2OCCCC)C=C1` [FCE 28789, 4-buthoxy-5-[(5-undecyl-2H-pyrrol-2-ylidene)methyl]-2,2'-bi-1H-pyrrole, hydrochloride], for which the values for the IC50 (in the assay with murine splenocytes (setting [2]); in assay [1] (setting [3])) were 0.0119 µg/mL and 0.784 µg/mL, respectively. The “TI (therapeutic index)” value in the assay with murine splenocytes came out at 66.

Consider `CCCCCCCCCCCC1=NC(=Cc2[nH]c(-c3ccc[nH]3)cc2OCC)C=C1.Cl` [FCE 28512, 4-ethoxy-5-[(5-undecyl-2H-pyrrol-2-ylidene)methyl]-2,2'-bi-1H-pyrrole, hydrochloride], for which the IC50 with murine splenocytes was found to be 0.0023 µg/mL; in assay [1] (K562, 48 h), 0.511 µg/mL. Also, in the assay with murine splenocytes, the “TI (therapeutic index)” value is given as 222.

Turning to `CCCCCCCCCCCC1=NC(=Cc2[nH]c(-c3ccc[nH]3)cc2OC)C=C1.Cl` [UP, 4-methoxy-5-[(5-undecyl-2H-pyrrol-2-ylidene)methyl]-2,2'-bi-1H-pyrrole, hydrochloride, reference compound], in the assay with murine splenocytes, the IC50 amounted to 0.0029 µg/mL and the “TI (therapeutic index)” value was determined as 36. Also, in assay [1] (K562, 48 h), the IC50 was determined as 0.106 µg/mL.

With `CCCCCCCCCCCCCC1=NC(=Cc2[nH]c(-c3ccc[nH]3)cc2OC)C=C1.Cl` [FCE 28526, 4-methoxy-5-[(5-tridecyl-2H-pyrrol-2-ylidene)methyl]-2,2'-bi-1H-pyrrole, hydrochloride], the IC50 in the assay on murine splenocytes (setting [2]) came to 0.002 µg/mL; in assay [1] (setting [3]) it was 0.584 µg/mL. The “TI (therapeutic index)” value in the assay with murine splenocytes turned out to be 290.

As to `CCCCCCCCCCCCCC1=NC(=Cc2[nH]c(-c3ccc[nH]3)cc2OCC)C=C1.Cl` [FCE 28733, 4-ethoxy-5-[(5-tridecyl-2H-pyrrol-2-ylidene)methyl]-2,2'-bi-1H-pyrrole, hydrochloride], the IC50 in the assay on murine splenocytes was 0.0051 µg/mL; in assay [1] (K562, 48 h), 0.859 µg/mL. Besides, the “TI (therapeutic index)” value in the assay on murine splenocytes was found to be 168.

`CCCCCCCCCCCC1=NC(=Cc2[nH]c(-c3ccc[nH]3)cc2OCc2ccccc2)C=C1.Cl` [FCE 29002, 4-benzyloxy-5-[(5-undecyl-2H-pyrrol-2-ylidene)methyl]-2,2'-bi-1H-pyrrole, hydrochloride]: in the assay with murine splenocytes, the IC50 worked out at 0.0301 µg/mL and the “TI (therapeutic index)” value was found to be 193. In addition, the IC50 in assay [1] (K562, 48 h) came to 5.8 µg/mL.
